Type in all cases: cell-based
For experiment [1], the system named is phosphorylation of Histone H3 (at serine-10). Kind of experiment: Inhibition of phosphorylation of Histone H3 (serine-10) stimulated by anti-mitotic agents. As to conditions: stimulated by taxanes, KSP inhibitor, and nocodazole. On the procedure: (§1) Single agent Aurora kinase inhibitors require a drug exposure time of 24 hours to induce endoreduplication in asynchronous cells.

The subject of experiment [2] is HCT-116 colon cancer cells. Kind of experiment: FACS (flow cytometric) analysis of endoreduplication (>4N DNA content) in HCT-116 colon cancer cells. As to conditions: after 16 hours 10 nM Ispinesib pretreatment; 1000 nM Compound X / 25 nM Compound Z.
The next experiment concerns phos-MPM2 marker. Briefly: Exit from mitosis measured by phos-MPM2 marker after anti-mitotic induced arrest. The settings on record: taxane and KSP induced arrest. How it is done: as §1
The test system of experiment [3] is HCT-116 colon cancer cells. Kind of experiment: FACS (flow cytometric) analysis of endoreduplication (>4N DNA content) in HCT-116 colon cancer cells. On the procedure:
Asynchronous cells require 24 hour exposure to Aurora kinase inhibitors (such as 250 nM VX-680 or 1000 nM COMPOUND X. (Compound X is disclosed in WO 2008/057512, filed Nov. 6, 2007, Example 4-3 and Claim 70, Example 4-3 and Claim 70 and is shown below and it is represented in Formula H and Table 2, column 2, row 17 of the present application) or 25 nM COMPOUND Z (Compound Z is disclosed in PCT US2008/007295, filed Jun. 11, 2008, Example 76-2 and Claim 25, row 7, column 4 and it is represented in Table 13, compound 76-2 of the present application)) to induce endoreduplication (>4N DNA content) or cell death. For example, HCT-116 colon cancer cells were treated with 1000 nM COMPOUND X or 25 nM COMPOUND Z for the indicated times at which time the drug was washed off and replaced with new media see FIG. 1 and FIG. 8 respectively. Cells were analyzed by FACS after a total of 72 hours.
For example, HCT-116 colon cancer cells were treated with 1000 nM COMPOUND X or 25 nM COMPOUND Z for the indicated times at which time the drug was washed off and replaced with new media see FIG. 2 and FIG. 9 respectively. Cells were analyzed by FACS after a total of 24 hours.
For example, HCT-116 colon cancer cells were treated for 16 hours with DMSO (FIG. 3) or 5 nM taxotere and then exposed to DMSO or 1000 nM COMPOUND X or 25 nM COMPOUND Z for 4, 8, and 24 hours. After 4 or 8 hours, COMPOUND X or COMPOUND Z was washed off and new media was added to the cells. Cells were harvested after 24 hours and analyzed by FACS (see FIG. 4 and FIG. 11 respectively). Following DMSO pretreatment, DMSO had no effect on cell cycle distribution. […] Endoreduplication was observed even when COMPOUND X or COMPOUND Z exposure was as little as 4 hours.
However, following a 16 hour pre-treatment with nocodazole for incrusting, the time required for an Aurora inhibitor (such as 250 nM VX-680 or 1000 nM COMPOUND X or COMPOUND Z) to induce endoreduplication was […]. For example, HCT-116 colon cancer cells were treated for 16 hours with 0.4 μg/ml nocodazole see FIG. 5, and then exposed to DMSO or 1000 nM COMPOUND X or COMPOUND Z for 4, 8 or 24 hours. After 4 or 8 hours, COMPOUND X or COMPOUND Z was washed off and new media was added to the cells. Cells were harvested after 24 hours and analyzed by FACS.
For example, HCT-116 colon cancer cells that were not pretreated, were treated with 5 nM taxotere plus DMSO or 1000 nM COMPOUND X or COMPOUND Z concurrently for 4, 8, or 24 hours. At the indicated time the media was removed and replaced with new media and taxotere was added back into these cells. Cells were harvested after 24 hours and analyzed by FACS see FIG. 6 or FIG. 12 respectively.

The structures appear in SMILES notation.

For `CCN(Cc1cc(Nc2nc(C)cn3c(-c4cn[nH]c4)cnc23)sn1)C(C)(C)CO` [Compound Z], in experiment [1], the “inhibition of phosphorylation of Histone H3 (at serine-10)” value is listed as “capable of inhibiting phosphorylation of Histone H3”. For the same compound, the “Aurora kinase inhibitor exposure at which endoreduplication was still observed (as little as)” value is at most 4 h in experiment [2] and at most 4 h in experiment [3] (after 16 hours 5 nM taxotere pretreatment, 1000 nM Compound X / 25 nM Compound Z). The “exit from mitosis, as measured by phos-MPM2 marker” value in the experiment on phos-MPM2 marker is listed as “accelerated the exit from mitosis”. Besides, the endoreduplication entry was “induced endoreduplication” in experiment [3] (16 hours 5 nM taxotere pretreatment, then 1000 nM Compound X or 25 nM Compound Z for 4, 8 and 24 hours, FACS at 24 hours); “induced endoreduplication” in experiment [3] (16 hours 10 nM Ispinesib (KSP inhibitor) pretreatment, then 1000 nM Compound X or 25 nM Compound Z for 4, 8 and 24 hours, FACS at 24 hours); “induced endoreduplication, but only when COMPOUND X or COMPOUND Z exposure was 24 hours” in experiment [3] (16 hours DMSO pretreatment, then 1000 nM COMPOUND X or 25 nM COMPOUND Z for 4, 8 and 24 hours, FACS at 24 hours); “insufficient to induce endoreduplication” in experiment [3] (16 hours nocodazole (0.4 μg/ml) pretreatment, then 4- or 8-hour exposure to Aurora kinase inhibitor, FACS at 24 hours); “induced endoreduplication” in experiment [3] (16 hours nocodazole (0.4 μg/ml) pretreatment, then 24 hour exposure to Aurora kinase inhibitor, FACS at 24 hours); “not sufficient to induce endoreduplication” in experiment [3] (Aurora kinase inhibitor given at the same time as 5 nM taxotere, 4 hour exposure, FACS at 24 hours). Besides, the endoreduplication result is “not sufficient” in experiment [3] (Aurora kinase inhibitor given at the same time as 5 nM taxotere, 4 hour exposure, FACS at 24 hours, listed as COMPOUND Z) and “not sufficient to induce endoreduplication” in experiment [3] (Aurora kinase inhibitor given at the same time as Ispinesib (KSP inhibitor), 4 hour exposure). The “exposure needed to induce endoreduplication” value in experiment [3] (Aurora kinase inhibitor given at the same time as 5 nM taxotere, no pretreatment) stood at 24 h; in experiment [3] (Aurora kinase inhibitor given at the same time as Ispinesib (KSP inhibitor)) it was 24 h. In experiment [3] (asynchronous cells, single agent, 250 nM VX-680, 1000 nM COMPOUND X, 25 nM COMPOUND Z), the “exposure to Aurora kinase inhibitor required to induce endoreduplication (>4N DNA content) or cell death” value is 24 h. For the same compound, the “time required for Aurora inhibitor to induce endoreduplication, change after pre-treatment” value in experiment [3] (following 16 hour pre-treatment with nocodazole, 250 nM VX-680, 1000 nM COMPOUND X or COMPOUND Z) is given as “not reduced”. The “endoreduplication (>4N DNA content)” value in experiment [3] (single agent, 24 hour exposure, FACS after a total of 24 hours, 250 nM VX-680 / 1000 nM Compound X / 25 nM Compound Z) is “sufficient to induce endoreduplication”; in experiment [3] (single agent, 24 hour exposure, FACS after a total of 24 hours, 250 nM VX-680 / 1000 nM Compound X / 25 nM Compound Z, listed as COMPOUND Z), “resulted in the accumulation of cells that underwent endoreduplication”; in experiment [3] (single agent, drug exposure for 24, 48, or 72 hours, FACS after a total of 72 hours, 1000 nM Compound X / 25 nM Compound Z), “resulted in the accumulation of cells that underwent endoreduplication”; in experiment [3] (single agent, exposure less than 24 hours then drug washed off, FACS after a total of 72 hours, 1000 nM Compound X / 25 nM Compound Z), “insufficient to induce endoreduplication”; in experiment [3] (single agent, exposure less than 24 hours then washed off, FACS after a total of 24 hours, 250 nM VX-680 / 1000 nM Compound X / 25 nM Compound Z), “insufficient to induce endoreduplication”.

The values are drawn from US20100249030A1, “ANTI-MITOTIC AGENT AND AURORA KINASE INHIBITOR COMBINATION AS ANTI-CANCER TREATMENT” (Schering Corporation, priority 2007, published 2010).
